For data set [1], the system named is Huh-7. The data set is described as follows: MTT cell viability assay, Huh-7. Type of data set: cell-based. The note with it: Homo sapiens, Huh-7, 72 h, read-out: EC50 cell viability, Liver Huh-7. A general note: Tetrazolium dyes change colour on reduction, which living cells bring about.
The next data set relates to ACHN. The experiment in a line: MTT cell viability assay, ACHN. In kind it is cell-based. The note with it: Homo sapiens, 72 h, read-out: EC50 cell viability, Kidney ACHN.
For the next data set, the system named is PC-3. The data set is described as follows: MTT cell viability assay, PC-3. In kind it is cell-based. The note with it: Homo sapiens, PC-3, 72 h, read-out: EC50 cell viability, Prostate PC-3.
The test system of data set [2] is NCI-60 panel. The note with it: average response from all cell lines tested, cited from earlier work; for GI50: read-out: Potency, Mean GI50.
A further data set has as its system T47D. The data set is described as follows: MTT cell viability assay, T47D. The note with it: Homo sapiens, 72 h, read-out: EC50 cell viability, Breast T47D. Type of data set: cell-based.
The next data set has as its system SKBR3. The data set is described as follows: MTT cell viability assay, SKBR3. In kind it is cell-based. The note with it: Homo sapiens, SK-BR-3, 72 h, read-out: EC50 cell viability, Breast SKBR3.
The test system of data set [3] is HepG2. The data set is described as follows: MTT cell viability assay, HepG2. Type of data set: cell-based, human.
Data set [4] deals with soluble epoxide hydrolase (sEH). The note with it: read-out: IC50 against sEH; cited from earlier work.
Data set [5] relates to HepG2 cells. The experiment in a line: Mitochondrial membrane depolarization and AIF release. In kind it is cell-based, human. The note with it: 30 μM, 6 h.
Data set [6] deals with Huh-7. The data set is described as follows: Caspase-Glo 3/7 induction, Huh-7. In kind it is cell-based, human.
Data set [7] deals with HepG2. The experiment in a line: Caspase-Glo 3/7 induction, HepG2. In kind it is cell-based, human.
For another data set, the target named is Raf-1 kinase. The note with it: read-out: IC50 recombinant Raf-1 kinase inhibition; cited from earlier work.
Data set [8] relates to HepG2 cells. The experiment in a line: Cell viability with pan-caspase inhibitor Z-VAD-FMK co-treatment. Type of data set: cell-based, human. The note with it: Z-VAD-FMK 20 μM pre-incubation 60 min, then 30 μM compound for 24 h.
For data set [9], the system named is oncogenic b-Raf (V600E) kinase. The note with it: relative to sorafenib; cited from earlier work.
The subject of data set [10] is NCI-60 panel. The note with it: average response from all cell lines tested.
In data set [11] the test system is HepG2 cells. The experiment in a line: Cell cycle analysis. The note with it: 30 μM, 24-h exposure. In kind it is cell-based, human.
For the next data set, the target named is FGFR2 (Homo sapiens, UniProt P21802). The data set is described as follows: KinaseSeeker kinase screen, FGFR2. Type of data set: binding. The note with it: 10 μM, compared with sorafenib.
Sequence of FGFR2 (P21802 22-821): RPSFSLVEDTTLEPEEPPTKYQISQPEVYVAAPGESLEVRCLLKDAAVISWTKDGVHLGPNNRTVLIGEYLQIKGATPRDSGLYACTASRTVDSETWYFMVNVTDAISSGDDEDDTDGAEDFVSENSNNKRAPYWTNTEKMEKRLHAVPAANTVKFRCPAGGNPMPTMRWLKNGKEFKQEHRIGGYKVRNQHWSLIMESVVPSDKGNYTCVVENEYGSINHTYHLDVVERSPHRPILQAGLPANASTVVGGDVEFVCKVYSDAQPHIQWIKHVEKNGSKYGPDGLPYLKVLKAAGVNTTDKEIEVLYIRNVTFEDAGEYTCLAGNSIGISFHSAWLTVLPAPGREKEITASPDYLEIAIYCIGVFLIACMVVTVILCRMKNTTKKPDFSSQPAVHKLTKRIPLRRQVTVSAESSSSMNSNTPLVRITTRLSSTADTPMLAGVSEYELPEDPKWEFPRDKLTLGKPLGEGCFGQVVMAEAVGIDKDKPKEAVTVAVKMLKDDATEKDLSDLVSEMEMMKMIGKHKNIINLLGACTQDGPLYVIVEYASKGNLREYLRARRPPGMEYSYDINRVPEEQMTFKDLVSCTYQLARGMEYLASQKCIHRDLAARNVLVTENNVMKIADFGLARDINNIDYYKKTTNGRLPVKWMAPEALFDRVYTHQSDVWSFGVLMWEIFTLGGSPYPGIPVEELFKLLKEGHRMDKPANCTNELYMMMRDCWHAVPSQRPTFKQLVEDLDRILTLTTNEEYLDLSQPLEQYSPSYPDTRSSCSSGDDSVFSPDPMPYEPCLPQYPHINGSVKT
Data set [12] is described as follows: Pharmacokinetic study, cassette oral administration in mice. Type of data set: in vivo. The note with it: oral 1 mg/kg.
The subject of a further data set is STAT3 phosphorylation. The data set is described as follows: Western blot, STAT3 phosphorylation. Type of data set: cell-based, human. The note with it: 10 μM, 24 h exposure. On the technique in general: Immunoblotting shows a protein as a band on a membrane.
Another data set has as its system KM12 (colon cancer). The data set is described as follows: NCI-60 human tumor cell line screen, KM12. Type of data set: cell-based.
The target in another data set is T1, EPHA1 (Homo sapiens, UniProt P21709).
T1 sequence (P21709 26-976): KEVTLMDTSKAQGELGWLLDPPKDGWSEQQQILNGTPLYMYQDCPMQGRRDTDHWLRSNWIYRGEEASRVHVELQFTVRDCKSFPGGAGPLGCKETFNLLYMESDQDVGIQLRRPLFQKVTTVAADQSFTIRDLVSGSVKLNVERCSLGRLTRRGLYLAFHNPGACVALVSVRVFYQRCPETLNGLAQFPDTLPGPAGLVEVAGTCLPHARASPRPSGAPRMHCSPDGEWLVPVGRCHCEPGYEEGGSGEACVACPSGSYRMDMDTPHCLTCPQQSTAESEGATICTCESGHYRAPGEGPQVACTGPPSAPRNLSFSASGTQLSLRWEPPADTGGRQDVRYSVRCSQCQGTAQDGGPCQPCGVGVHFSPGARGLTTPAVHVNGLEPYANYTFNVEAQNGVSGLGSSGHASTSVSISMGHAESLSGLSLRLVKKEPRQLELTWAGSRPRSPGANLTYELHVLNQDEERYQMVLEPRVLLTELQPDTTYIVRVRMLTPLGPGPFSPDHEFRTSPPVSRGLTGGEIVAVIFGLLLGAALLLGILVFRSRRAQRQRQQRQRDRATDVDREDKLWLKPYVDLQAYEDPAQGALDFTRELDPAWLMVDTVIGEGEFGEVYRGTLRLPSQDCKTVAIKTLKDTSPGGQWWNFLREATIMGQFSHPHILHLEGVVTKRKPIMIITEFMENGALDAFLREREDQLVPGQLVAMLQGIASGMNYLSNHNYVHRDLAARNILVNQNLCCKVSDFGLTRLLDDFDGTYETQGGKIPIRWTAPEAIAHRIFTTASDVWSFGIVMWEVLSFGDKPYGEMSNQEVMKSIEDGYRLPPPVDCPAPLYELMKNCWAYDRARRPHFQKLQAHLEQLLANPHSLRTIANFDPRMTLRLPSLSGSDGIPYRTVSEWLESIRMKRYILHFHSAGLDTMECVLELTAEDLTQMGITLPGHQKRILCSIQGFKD
The data set is described as follows: KinaseSeeker kinase screen, EPHA1. The note with it: 10 μM, compared with sorafenib. Type of data set: binding.

Results on six molecules are retold here after publication PMC4400119 (Cancer chemotherapy and pharmacology, 2014).

For orientation: EC50 means the concentration that produces a half-maximal response. In general, GI50 refers to the concentration giving 50% growth inhibition. In general, IC50 refers to the point on the concentration scale where inhibition reaches its midpoint.

Where two headings read alike, the source gives them in different places. Bounds are passed on as bounds.

As for `CCN(CC)CCNC(=O)c1c(C)[nH]c(/C=C2\C(=O)Nc3ccc(F)cc32)c1C` [Sunitinib], the EC50 with Huh-7 [1] is 8 ± 0.9 µM; in the data set on ACHN, 8 ± 1 µM; with PC-3, 8 ± 0.5 µM; in the data set on T47D it was 12 ± 1 µM; in the data set with SKBR3, 10 ± 0.9 µM; in the data set on HepG2 [3] (Homo sapiens, HepG2, 72 h, read-out: EC50 cell viability, Liver HepG2), 7.5 ± 0.8 µM. Also, the “Potency, Mean TGI50” value in the data set on NCI-60 panel [2] was 9.6 µM. Moreover, the GI50 in the data set with NCI-60 panel [2] is 2.2 µM.

`Cc1ccc(NC(=O)c2ccc(CN3CCN(C)CC3)cc2)cc1Nc1nccc(-c2cccnc2)n1` [Imatinib (Gleevac®)]: in the data set with NCI-60 panel [2], the “Potency, Mean TGI50” value was 43 µM and the GI50 is 15 µM.

For the molecule `C#Cc1cccc(Nc2ncnc3cc(OCCOC)c(OCCOC)cc23)c1` [Erlotinib (Tarceva®)], in the data set on NCI-60 panel [2], the “Potency, Mean TGI50” value is 59 µM and the GI50 was 5.5 µM.

With `CNC(=O)c1cc(Oc2ccc(NC(=O)Nc3ccc(Cl)c(C(F)(F)F)c3)cc2)ccn1` [Sorafenib], the IC50 in data set [4] was 0.012 µM; on Raf-1 kinase, […]. Further, the “mitochondrial membrane depolarization and release of AIF” value with HepG2 cells [5] is reported as “observed”. In addition, the EC50 with Huh-7 [1] came out at 4.2 ± 0.5 µM; in the data set on ACHN, 4 ± 0.5 µM; with PC-3, 5.5 ± 0.8 µM; in the data set on T47D, 3 ± 0.5 µM; in the data set on SKBR3, 6.5 ± 0.5 µM. Moreover, the “Potency, Mean TGI50” value in the data set on NCI-60 panel [2] is 6.0 µM. The GI50 with NCI-60 panel [2] was 1.9 µM. Moreover, the “lowest level at which caspase activation was observable” value in the data set on Huh-7 [6] (Huh-7, 72-h incubation) came to 0.1 µM; in the data set on HepG2 [7] (HepG2, 72-h incubation), 0.1 µM. For the same molecule, the “effect of Z-VAD-FMK on compound-induced cell death” value with HepG2 cells [8] is recorded as “no protective effect”.

Regarding `CNC(=O)c1cc(O[C@H]2CC[C@H](NC(=O)Nc3ccc(Cl)c(C(F)(F)F)c3)CC2)ccn1` [t-CUPM], the “mitochondrial membrane depolarization and release of AIF” value in the data set with HepG2 cells [5] is “observed”. The “loss in the activity toward oncogenic b-Raf (V600E) kinase” value in data set [9] is listed as 40 fold. Besides, the “caspase 3/7 induction” value in the data set on Huh-7 [6] (Huh-7, 25 μM, 72-h incubation) is reported as “levels of caspase induction similar to sorafenib”; with HepG2 [7] (HepG2, 25 μM, 72-h incubation) it was “levels of caspase induction similar to sorafenib”. Also, the “Potency, Mean TGI50” value in the data set with NCI-60 panel [10] was 34 µM. Moreover, the 50% growth inhibitory concentration (GI50) in the data set with NCI-60 panel [10] (read-out: Potency, Mean GI50) is 9 µM; in the data set on KM12 (colon cancer), 0.64 µM. In addition, in the data set with HepG2 cells [11], the “effect on cell cycle progression” value is “arrest in G0/G1 transition”. In addition, the “kinase inhibitory activity toward FGFR2” value on FGFR2 is listed as “reduced its kinase inhibitory activity”. In addition, the IC50 at Raf-1 kinase was 0.075 µM. In [12], the “Cmax compared with sorafenib” value is “higher Cmax”. Also, the “AUCt compared with sorafenib” value in data set [12] (0.5 to 48 h) is on record as “significantly higher AUCt”. Further, in data set [12] (from 0.5 to 48 h), the “blood levels relative to sorafenib” value was “tenfold”. Also, the “suppression of STAT3 phosphorylation” value in the data set with STAT3 phosphorylation was “not as effective as sorafenib”. Moreover, the “kinase inhibitory activity toward EPHA1” value on EPHA1 is given as “reduced its kinase inhibitory activity”. In addition, in the data set with HepG2 cells [8], the “effect of Z-VAD-FMK on compound-induced cell death” value was “no protective effect”. Further, the “EC50 relative to that of sorafenib” value in the data set with HepG2 [3] (cell viability, hepatoma cell lines HepG2 and Huh-7) is “< twofold”.

In the case of `COc1cc2ncnc(Nc3ccc(F)c(Cl)c3)c2cc1OCCCN1CCOCC1` [Gefitinib (Iressa®)], in the data set with NCI-60 panel [2], the “Potency, Mean TGI50” value was 19 µM and the GI50 was 3.2 µM.
